Measured values: patent US6476012B2, “Estradiol-16α-carboxylic acid esters as locally active estrogens” (Yale University, priority 2001, dated 2002)
Values joined by “and” are separate entries in the source; they are usually repeats but may differ in a detail not shown here. Equal entries are not always repeated. Structures can show the parent of a compound that is named as a salt.

Key:
[1] = target: T1, ER in rat uterine cytosol (ERα) (Rattus norvegicus, UniProt P06211); experiment: Competitive binding to the ER in rat uterine cytosol (RBA vs [3H]E2); details: for ER RBA (relative binding affinity): rat uterine estrogen receptor assay, E2 = 100, ± S.D.; for RBA / binding to the ER: uterine cytosol (ERα); for RBA: relative to E2
T1 construct: The uterus was removed and homogenized in ice-cold TEGDMo buffer; from tissue; host or cells: uterine cytosol of castrated female Sprague Dawley rats
T1 sequence (P06211 1-600): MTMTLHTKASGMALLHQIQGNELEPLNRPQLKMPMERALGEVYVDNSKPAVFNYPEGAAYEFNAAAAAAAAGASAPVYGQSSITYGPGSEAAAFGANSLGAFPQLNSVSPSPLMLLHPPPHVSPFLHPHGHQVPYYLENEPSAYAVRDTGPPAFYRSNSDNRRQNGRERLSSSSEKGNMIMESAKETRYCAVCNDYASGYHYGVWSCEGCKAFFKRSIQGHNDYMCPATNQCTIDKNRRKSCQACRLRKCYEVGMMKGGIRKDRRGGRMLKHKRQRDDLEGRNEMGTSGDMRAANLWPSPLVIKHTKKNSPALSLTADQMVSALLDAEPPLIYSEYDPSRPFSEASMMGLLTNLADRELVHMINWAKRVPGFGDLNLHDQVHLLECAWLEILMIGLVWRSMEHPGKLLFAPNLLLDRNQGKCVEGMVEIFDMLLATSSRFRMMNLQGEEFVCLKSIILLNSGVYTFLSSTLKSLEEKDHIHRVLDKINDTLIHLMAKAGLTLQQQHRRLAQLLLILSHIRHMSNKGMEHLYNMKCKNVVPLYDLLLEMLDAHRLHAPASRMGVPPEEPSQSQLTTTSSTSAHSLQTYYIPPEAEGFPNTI
Procedure: Competitive Binding to the Estrogen Receptor ERα and ERβ. […] The ER in uterine cytosol is ERα the classical form of the ER.^38 Female Sprague Dawley rats were castrated and sacrificed 24 h later. The uterus was removed and homogenized in ice-cold TEGDMo buffer (10 mM Tris, 1.5 mM Na2-EDTA, 10% (v/v) glycerol, 1.0 mM dithiothreitol, 25 mM sodium molybdate, pH 7.4 at 4° C.). and centrifuged at 105,000 g for 45 min at 4° C. The supernatant (cytosol) was frozen on dry ice and stored at −80° C. until assay. […] Incubations were carried out on ice overnight and bound radioactivity was separated from free by adsorption with dextran coated charcoal and quantified by counting.^26 Relative Binding Affinity (RBA) was determined by analysis of the displacement curves by the curve-fitting program Prism (Graph-Pad Software inc., San Diego, Calif.). The results shown in Table 1. below, are from at least 3 separate experiments performed in duplicate.

[2] = test system: alkaline phosphatase (AlkP) induction in Ishikawa cells; experiment: Estrogenic potency in Ishikawa cells: induction of AlkP; assay type: cell-based, human; details: for Ishikawa Cell AlkP RSA (relative stimulatory activity): induction of AlkP, E2 = 100, ± S.D.
Procedure: Estrogenic Potency in Ishikawa Cells. The estrogenic potency of the E2-analogs was determined in a estrogen bioassay, the induction of AlkP in human endometrial adenocarcinoma cells (Ishikawa) grown in 96-well microtiter plates as we have previously described.^28 In short, the cells are grown in phenol red free medium with estrogen depleted (charcoal stripped) bovine serum in the presence or absence of varying amounts of the steroids. […] After 3 days, the cells are washed, frozen and thawed, and then incubated with 5 mM p-nitrophenyl phosphate, a chromogenic substrate for the AlkP enzyme, at pH 9.8. To ensure linear enzymatic analysis, the plates are monitored kinetically for the for the production of p-nitrophenol at 405 nm. The relative stimulatory activity is determined by analysis of the curve fitting program Prism. Each compound was analyzed in at least 3 separate experiments performed in duplicate.

[3] = test system: esterase(s) in rat hepatic microsomes; experiment: Esterase assay with rat hepatic microsomes; assay type: in vitro ADME; details: rat hepatic microsomes, E16-1,2 = 100; ± S.D.
Procedure: Esterase. Esterase activity was measured in rat hepatic microsomes essentially using the conditions described.^39 Liver obtained from Sprague-Dawley rats was washed with phosphate buffered saline and homogenized in 3 volumes of cold 0.25 M sucrose and centrifuged at 700 g for 10 min and then at 10,000 g for 20 min. The resulting supernatant was centrifuged at 105,000 g for 60 min. The pellet was suspended in 0.1 M phosphate buffer pH 7.4 and washed by centrifugation at 105,000 g for 60 min. The washed pellet was suspended in 0.1 M Tris-HCl pH 8.0 at a concentration of ˜13 mg protein/ml and frozen at −80° C. For assay, the pellets were thawed and diluted with the same buffer. The incubation mixture consisted of the microsomal enzyme preparation, 0.28 mg protein/ml, E2-16α-alkyl esters, 50 μM, added in 10 μL of ethanol, all in a final volume of 1 mL of Tris buffer pH 8.0. Since the rates of reaction are widely different for the various esters, the incubation times were varied accordingly to obtain linear kinetics. At several appropriate time points, 100 μL aliquots were withdrawn and the reaction was quenched with 33 μL CH3CN, followed by a 33 μL of a solution of THF containing 1 […] of the internal standard, 6-ketoestradiol. The quenched aliquot was centrifuged for several minutes on bench-top centrifuge and 80 μl of the supernatant was analyzed for the esterase-hydrolysis product (the corresponding E2-16α-carboxylic acid: E16-1,0 8; E16-2,0 23; E16-3,0 35) by reversed phase HPLC with system H-10 for E2-16-1 and E2-16-2 esters, and with system H-15 for E2-16-3 esters. The E2-16α-carboxyl products, (Rt for E16-1,0 8=7 min and for E16-2,0 23=9 min, E16-3,0 35=6.5 min) and the internal standard, 6-ketoestradiol (Rt 7.5 min in system H-10, and 5 min in system H-15) were quantified at 280 nm on the HPLC UV detector. The UV absorbance was converted to moles of product by comparison to standard curves and corrected for recovery of the internal standard, 6-ketoestradiol. The velocity of the reaction for each ester, in nmol product/min/ml/ was then normalized to the ester, E16-1,2 10 and is shown in Table 1 as relative hydrolytic activity (RHA). The enzymatic velocity for the hydrolysis of E16-1,2 10 was 0.9±0.2 (S.D.) nmol product/min/ml over the various experiments. Since all of the esters could not be tested simultaneously, in each case we compared the rate of hydrolysis of the test compound to that of E16-1,2 10 run concurrently. All compounds were tested in triplicate in 3 separate experiments.

human ERβ and ERα = experiment: Competitive binding to human ERβ and ERα expressed in Escherichia coli lysates (ratio of RBAs); details: RBAs (E2 = 100) in E. coli lysates expressing human ERβ and ERα separately

| Compound | ER RBA (relative binding affinity) [1] | RBA [1] | Esterase RHA (relative hydrolytic activity) [3] | Ishikawa Cell AlkP RSA (relative stimulatory activity) [2] | binding to the ER [1] | RSA (estrogenic potency compared to E2) ([2]; Ishikawa AlkP) | ERα/ERβ (ratio of the RBAs) (human ERβ and ERα) |
| --- | --- | --- | --- | --- | --- | --- | --- |
| CC(C)OC(=O)[C@@H]1C[C@H]2[C@@H]3CCc4cc(O)ccc4[C@H]3CC[C@]2(C)[C@H]1O [E16-1,3i, Isopropyl (3,17β-dihydroxyestra-1,3,5(10)-trien-16α-yl) formate] | 7 ± 4 | 7% | 140 and 140 ± 10 | 0.1 ± 0.06 |  |  |  |
| C[C@]12CC[C@@H]3c4ccc(O)cc4CC[C@H]3[C@@H]1C[C@@H](C(=O)O)[C@@H]2O [E16-1,0, 3,17β-dihydroxyestra-1,3,5(10)-trien-16α-carboxylic acid] | 0 |  |  | 0 | None of the parent carboxylic acid analogs, E16-1,0, E16-2,0 and E16-3,0 showed significant binding |  |  |
| C[C@]12CC[C@@H]3c4ccc(O)cc4CC[C@H]3[C@@H]1CCC2=O [Compound E1, estrone, reference compound] |  |  |  | 7 ± 2 |  | 7% |  |
| COC(=O)CC[C@@H]1C[C@H]2[C@@H]3CCc4cc(O)ccc4[C@H]3CC[C@]2(C)[C@H]1O [E16-3,1, Methyl 3-(3,17β-dihydroxyestra-1,3,5(10)-trien-16α-yl)propanoate] | 1 ± 1 | 1% | 910 ± 100 | 0 |  |  |  |
| C[C@]12CC[C@@H]3c4ccc(O)cc4CC[C@H]3[C@@H]1C[C@@H](CC(=O)O)[C@@H]2O [E16-2,0, 3,17β-Dihydroxyestra-1,3,5(10)-trien-16α-yl acetic acid] | 0 |  |  | 0 | None of the parent carboxylic acid analogs, E16-1,0, E16-2,0 and E16-3,0 showed significant binding |  |  |

Second part, led by results:

| ER RBA (relative binding affinity) [1] | RBA [1] | Esterase RHA (relative hydrolytic activity) [3] | Compound | Ishikawa Cell AlkP RSA (relative stimulatory activity) [2] | binding to the ER [1] | RSA (estrogenic potency compared to E2) ([2]; Ishikawa AlkP) | ERα/ERβ (ratio of the RBAs) (human ERβ and ERα) |
| --- | --- | --- | --- | --- | --- | --- | --- |
| 28 ± 17 | 28% | 350 ± 50 | CCCCOC(=O)[C@@H]1C[C@H]2[C@@H]3CCc4cc(O)ccc4[C@H]3CC[C@]2(C)[C@H]1O [E16-1,4, n-Butyl (3,17β-dihydroxyestra-1,3,5(10)-trien-16α-yl) formate] | 1 ± 0 |  |  |  |
| 0.1 ± 0.1 |  |  | C[C@]12CC[C@@H]3c4ccc(O)cc4CC[C@H]3[C@@H]1C[C@@H](CCC(=O)O)[C@@H]2O [E16-3,0, 3-(3,17β-dihydroxyestra-1,3,5(10)-trien-16α-yl)propanioc acid] | 0 | None of the parent carboxylic acid analogs, E16-1,0, E16-2,0 and E16-3,0 showed significant binding |  |  |
| 34 ± 9 |  | 230 and 230 ± 50 | CCCOC(=O)[C@@H]1C[C@H]2[C@@H]3CCc4cc(O)ccc4[C@H]3CC[C@]2(C)[C@H]1O [E16-1,3, Propyl (3,17β-dihydroxyestra-1,3,5(10)-trien-16α-yl) formate] | 2 ± 0 |  |  |  |
| 7 ± 1 | 7% | 8,200 ± 1,800 | C[C@]12CC[C@@H]3c4ccc(O)cc4CC[C@H]3[C@@H]1C[C@@H](C(=O)OCC(F)(F)F)[C@@H]2O [E16-1,2F3, 2′,2′,2′-Trifluoroethyl (3,17β-dihydroxyestra-1,3,5(10)-trien-16α-yl) formate] | 3 ± 1 |  |  |  |
| 14 ± 3 | 7% | 50 and 50 ± 5 | CC(C)(C)COC(=O)[C@@H]1C[C@H]2[C@@H]3CCc4cc(O)ccc4[C@H]3CC[C@]2(C)[C@H]1O [E16-1,5neo] | 1 ± 0.6 |  |  |  |
| 5 ± 2 | 5% | 340 ± 30 | COC(=O)C[C@@H]1C[C@H]2[C@@H]3CCc4cc(O)ccc4[C@H]3CC[C@]2(C)[C@H]1O [E16-2,1, Methyl 3,17β-dihydroxyestra-1,3,5(10)-trien-16α-yl acetate] | 0.5 ± 0.1 |  |  |  |
| 10 ± 3 | 10% | 2,350 ± 275 | C[C@]12CC[C@@H]3c4ccc(O)cc4CC[C@H]3[C@@H]1C[C@@H](C(=O)OCC(F)F)[C@@H]2O [E16-1,2F2, 2′,2′-Difluoroethyl (3,17β-dihydroxyestra-1,3,5(10)-trien-16α-yl) formate] | 4 ± 1 |  |  | 1,800 |
| 5 ± 1 | 5% | 700 ± 120 | CCOC(=O)C[C@@H]1C[C@H]2[C@@H]3CCc4cc(O)ccc4[C@H]3CC[C@]2(C)[C@H]1O [E16-2,2, Ethyl (3,17β-dihydroxyestra-1,3,5(10)-trien-16α-yl) acetate] | 0.3 ± 0.1 |  |  |  |
